Source: ChEMBL document CHEMBL4038308, “Lipophosphonoxins II: Design, Synthesis, and Properties of Novel Broad Spectrum Antibacterial Agents” (J Med Chem, 2017)
Converted amounts (≈) assume the structure as drawn. The source made the active and inactive calls. No cut-off for these calls is given here.

Assays:
[1] = Critical micellar concentration of the compound by capillary electrophoresis method
Escherichia coli [2] = experiment: Antibacterial activity against Escherichia coli CCM 3954 after 24 hrs by microdilution method; type: functional; settings: CCM 3954, 24 h
Pseudomonas aeruginosa [3] = experiment: Antibacterial activity against Pseudomonas aeruginosa CCM 3955 after 24 hrs by microdilution method; type: functional; settings: CCM 3955, 24 h
Enterococcus faecalis = experiment: Antibacterial activity against Enterococcus faecalis CCM 4224 after 24 hrs by microdilution method; type: functional; settings: CCM 4224, 24 h
Staphylococcus aureus [4] = experiment: Antibacterial activity against Staphylococcus aureus CCM 4223 after 24 hrs by microdilution method; type: functional; settings: CCM 4223, 24 h
Bacillus subtilis [5] = experiment: Antibacterial activity against Bacillus subtilis after 24 hrs by microdilution method; type: functional
Streptococcus agalactiae = experiment: Antibacterial activity against Streptococcus agalactiae after 24 hrs by microdilution method; type: functional
Escherichia coli [6] = experiment: Antibacterial activity against Escherichia coli 16702 after 24 hrs by microdilution method; type: functional; settings: Escherichia coli, 16702, 24 h
Pseudomonas aeruginosa [7] = experiment: Antibacterial activity against Pseudomonas aeruginosa 16575 after 24 hrs by microdilution method; type: functional; settings: Pseudomonas aeruginosa, 16575, 24 h
Staphylococcus aureus [8] = experiment: Antibacterial activity against methicillin-resistant Staphylococcus aureus 4591 clinical isolates after 24 hrs by microdilution method; type: functional; settings: Staphylococcus aureus, 4591, 24 h
[9] = tested on: Staphylococcus haemolyticus; experiment: Antibacterial activity against fluoroquinolne-resistant Staphylococcus haemolyticus 16568 after 24 hrs by microdilution method; type: functional; settings: Staphylococcus haemolyticus, 16568, 24 h
[10] = tested on: Staphylococcus epidermidis; experiment: Antibacterial activity against Staphylococcus epidermidis 8700/B after 24 hrs by microdilution method; type: functional
Enterococcus faecium = experiment: Antibacterial activity against vancomycin-resistant Enterococcus faecium 419/ana clinical isolates after 24 hrs by microdilution method; type: functional
Salmonella enteritidis = experiment: Antibacterial activity against Salmonella enteritidis S2-25 after 24 hrs by microdilution method; type: functional, Salmonella enterica subsp. enterica serovar Enteritidis; settings: Salmonella enterica, S2-25, 24 h
Acinetobacter baumannii = experiment: Antibacterial activity against Acinetobacter baumannii A3-08 after 24 hrs by microdilution method; type: functional; settings: A3-08, 24 h
[11] = tested on: Stenotrophomonas maltophilia; experiment: Antibacterial activity against Stenotrophomonas maltophilia S2-23 after 24 hrs by microdilution method; type: functional; settings: S2-23, 24 h
Burkholderia multivorans = experiment: Antibacterial activity against Burkholderia multivorans after 24 hrs by microdilution method; type: functional
Escherichia coli [12] = experiment: Bactericidal activity against Escherichia coli CCM 3954 assessed as reduction in bacterial count at 12.5 mg/L after 45 mins by time kill assay; type: functional
Escherichia coli [13] = experiment: Bactericidal activity against Escherichia coli CCM 3954 assessed as reduction in bacterial count at 25 mg/L after 30 mins by time kill assay; type: functional
Staphylococcus aureus [14] = experiment: Bactericidal activity against Staphylococcus aureus CCM 4223 assessed as reduction in bacterial count at 25 mg/L after 6 hrs by time kill assay; type: functional
Staphylococcus aureus [15] = experiment: Bactericidal activity against Staphylococcus aureus CCM 4223 assessed as reduction in bacterial count at 6.25 to 12.5 mg/L after 24 hrs by time kill assay; type: functional
Bacillus subtilis [16] = experiment: Antibacterial activity against Bacillus subtilis assessed as inhibition of DNA synthesis at 1.5 mg/L after 50 mins by [3H]thymidine incorporation assay; type: functional
Bacillus subtilis [17] = experiment: Antibacterial activity against Bacillus subtilis assessed as inhibition of RNA synthesis at 1.5 mg/L after 50 mins by [3H]-uridine incorporation assay; type: functional
Bacillus subtilis [18] = experiment: Antibacterial activity against Bacillus subtilis assessed as inhibition of peptidoglycan synthesis at 1.5 mg/L after 50 mins by [3H]-N-acetylglucosamine incorporation assay; type: functional
Bacillus subtilis [19] = experiment: Antibacterial activity against Bacillus subtilis assessed as inhibition of plasma membrane lipids synthesis at 1.5 mg/L after 50 mins by [3H]-sodium acetate incorporation assay; type: functional
Bacillus subtilis [20] = experiment: Antibacterial activity against Bacillus subtilis assessed as inhibition of protein synthesis at 1.5 mg/L after 50 mins by [35S]-methionine incorporation assay; type: functional
[21] = Pore forming activity across black lipid bilayer membranes assessed as induction of variation in membrane current by measuring pore conductance at 5 ug/ml
Lipid bilayer = experiment: Binding affinity to DOPG large unilamellar vesicle assessed as carboxyfluorescein leakage at 10 mg/L after 20 secs by fluorescence-based assay relative to control
Staphylococcus aureus [22] = experiment: Induction of cytoplasmic membrane permeabilization in Staphylococcus aureus CCM 4223 assessed as increase in propidium iodide fluorescence intensity at 5 mg/L by spectrofluorometric analysis; type: functional
[23] = tested on: Staphylococcus epidermidis; experiment: Induction of cytoplasmic membrane permeabilization in Staphylococcus epidermidis 8700/B assessed as increase in propidium iodide fluorescence intensity at 5 mg/L by spectrofluorometric analysis; type: functional
Escherichia coli [24] = experiment: Induction of cytoplasmic membrane permeabilization in Escherichia coli CCM 3954 assessed as increase in propidium iodide fluorescence intensity at 5 mg/L by spectrofluorometric analysis; type: functional
Pseudomonas aeruginosa [25] = experiment: Induction of cytoplasmic membrane permeabilization in Pseudomonas aeruginosa CCM 3955 assessed as increase in propidium iodide fluorescence intensity at 5 mg/L by spectrofluorometric analysis; type: functional
J774.A1 = experiment: Cytotoxicity against mouse J774A.1 cells assessed as damage to cell membrane by measuring propidium iodide intake at 5 mg/L by spectrofluorometric analysis; type: cell-based
BJ = experiment: Cytotoxicity against human BJ cells assessed as reduction in cell viability after 48 hrs by ATPlite reagent based assay
TERT-RPE1 [26] = experiment: Cytotoxicity against human RPE1 cells assessed as reduction in cell viability after 48 hrs by ATPlite reagent based assay; settings: tert-rpe1, 48 h
HepG2 [27] = experiment: Cytotoxicity against human HepG2 cells assessed as reduction in cell viability after 48 hrs by ATPlite reagent based assay; settings: hepg2, 48 h
TERT-RPE1 [28] = experiment: Induction of apoptosis in human RPE1 cells assessed as caspase 3/7 activation up to 80 mg/L after 4 hrs by caspase-Glo 3/7 luminescent assay; type: cell-based; settings: tert-rpe1, 4 h
HepG2 [29] = experiment: Induction of apoptosis in human HepG2 cells assessed as caspase 3/7 activation up to 80 mg/L after 4 hrs by caspase-Glo 3/7 luminescent assay; type: cell-based; settings: hepg2, 4 h
TERT-RPE1 [30] = experiment: Cytotoxicity against human RPE1 cells assessed as disruption of cell membrane integrity after 4 hrs by CytoTox-ONE-based assay; settings: tert-rpe1, 4 h
HepG2 [31] = experiment: Cytotoxicity against human HepG2 cells assessed as disruption of cell membrane integrity after 4 hrs by CytoTox-ONE-based assay; settings: hepg2, 4 h
[32] = Chemical stability of compound at 50 to 500 mg/L at pH 0.18 after 24 hrs at room temperature by LC-MS analysis; type: physicochemical; settings: buffer, pH 0.18, 24 h
[33] = Chemical stability of compound at 50 to 500 mg/L at pH 5 after 24 hrs at room temperature by LC-MS analysis; type: physicochemical; settings: buffer, pH 5, 24 h
[34] = Chemical stability of compound at 50 to 500 mg/L at pH 8.8 after 24 hrs at room temperature by LC-MS analysis; type: physicochemical; settings: buffer, pH 8.8, 24 h
Mus musculus [35] = experiment: Toxicity in ICR mouse assessed as mortality up to 2000 mg/kg, po administered as single dose measured for 2 weeks; type: organism-based; settings: in vivo, 336 h
Mus musculus [36] = experiment: Toxicity in ICR mouse assessed as body weight loss up to 2000 mg/kg, po administered as single dose measured for 2 weeks; type: organism-based; settings: in vivo, 336 h
Oryctolagus cuniculus [37] = experiment: Toxicity in topically applied rabbit assessed as skin irritation measured up to 14 days post dose; settings: in vivo, topical_or_ocular, 336 h
Oryctolagus cuniculus [38] = experiment: Toxicity in topically dosed rabbit assessed as skin irritation by measuring behavioral abnormalities measured up to 7 days post dose; type: organism-based; settings: in vivo, topical_or_ocular, 168 h
TERT-RPE1 [39] = experiment: Cytotoxicity against human RPE1 cells assessed as disruption of cell membrane integrity at >80 mg/L after 4 hrs by CytoTox-ONE-based assay; settings: tert-rpe1, 4 h
[40] = Chemical stability of compound at 50 to 500 mg/L at pH 0.18 after 24 hrs at 37 degC by LC-MS analysis; type: physicochemical; settings: buffer, pH 0.18, 24 h
[41] = Chemical stability of compound at 50 to 500 mg/L at pH 5 after 24 hrs at 37 degC by LC-MS analysis; type: physicochemical; settings: buffer, pH 5, 24 h
[42] = Chemical stability of compound at 50 to 500 mg/L at pH 8.8 after 24 hrs at 37 degC by LC-MS analysis; type: physicochemical; settings: buffer, pH 8.8, 24 h
Oryctolagus cuniculus [43] = experiment: Toxicity in topically applied rabbit assessed as skin irritation measured by measuring physiological abnormalities up to 7 days post dose; settings: in vivo, topical_or_ocular, 168 h

SMILES: CCCCCCCCCCCCCCCOP(=O)(CCN(CCCNC(=N)N)CCCNC(=N)N)OC[C@H]1O[C@@H](n2ccc(=O)[nH]c2=O)[C@H](O)[C@@H]1O (some centres not stated)
- CMC [1]: 1.42 mM
- MIC (Escherichia coli [2]): 0.78 µg/mL (≈ 1.03 µM)
- MIC (Pseudomonas aeruginosa [3]): 0.78 µg/mL (≈ 1.03 µM)
- MIC (Enterococcus faecalis): 25 µg/mL (≈ 32.9 µM)
- MIC (Staphylococcus aureus [4]): 3.13 µg/mL (≈ 4.12 µM)
- MIC (Bacillus subtilis [5]): 0.39 µg/mL (≈ 0.513 µM)
- MIC (Streptococcus agalactiae): 1.56 µg/mL (≈ 2.05 µM)
- MIC (Escherichia coli [6]): 0.78 µg/mL (≈ 1.03 µM)
- MIC (Pseudomonas aeruginosa [7]): 1.56 µg/mL (≈ 2.05 µM)
- MIC (Staphylococcus aureus [8]): 3.13 µg/mL (≈ 4.12 µM)
- MIC [9]: 1.56 µg/mL (≈ 2.05 µM)
- MIC [10]: 1.56 µg/mL (≈ 2.05 µM)
- MIC (Enterococcus faecium): 50 µg/mL (≈ 65.8 µM)
- MIC (Salmonella enteritidis): 1.56 µg/mL (≈ 2.05 µM)
- MIC (Acinetobacter baumannii): 3.13 µg/mL (≈ 4.12 µM)
- MIC [11]: 3.13 µg/mL (≈ 4.12 µM)
- MIC (Burkholderia multivorans): 25 µg/mL (≈ 32.9 µM)
- Activity (Escherichia coli [12]): Active
- Activity (Escherichia coli [13]): Active
- Activity (Staphylococcus aureus [14]): Active
- Activity (Staphylococcus aureus [15]): Active
- inhibition (Bacillus subtilis [16]): inactive
- inhibition (Bacillus subtilis [17]): inactive
- inhibition (Bacillus subtilis [18]): inactive
- inhibition (Bacillus subtilis [19]): inactive
- inhibition (Bacillus subtilis [20]): inactive
- Activity [21]: 23 to 168 pS
- Activity (Lipid bilayer): < 85%
- Activity (Staphylococcus aureus [22]): Active
- Activity [23]: Active
- Activity (Escherichia coli [24]): Active
- Activity (Pseudomonas aeruginosa [25]): Active
- Activity (J774.A1): Non-Toxic
- Activity (BJ): 29.6 mg/L
- Activity (TERT-RPE1 [26]): 39.8 mg/L
- Activity (HepG2 [27]): 36.7 mg/L
- Activity (TERT-RPE1 [28]): Non-Toxic
- Activity (HepG2 [29]): Non-Toxic
- Activity (TERT-RPE1 [30]): Non-Toxic
- Activity (HepG2 [31]): Non-Toxic
- Stability [32]: Stable
- Stability [33]: Stable
- Stability [34]: Stable
- Activity (Mus musculus [35]): Non-Toxic
- Activity (Mus musculus [36]): Non-Toxic
- Activity (Oryctolagus cuniculus [37]): Non-Toxic
- Activity (Oryctolagus cuniculus [38]): Non-Toxic
- Activity (TERT-RPE1 [39]): Non-Toxic
- Stability [40]: Stable
- Stability [41]: Stable
- Stability [42]: Stable
- Activity (Oryctolagus cuniculus [43]): Non-Toxic
